Experimental data: ChEMBL document CHEMBL5696442, “Discovery of type II inhibitors of TGFβ-activated kinase 1 (TAK1) and mitogen-activated protein kinase kinase kinase kinase 2 (MAP4K2)” (J Med Chem, 2015)
The source made the active and inactive calls. The calls are words filed in the database; no cut-off is given here.

Assays:
[1] = target: Cyclin-dependent kinase 10 (Homo sapiens) (UniProt Q15131); assay: Inhibition of CDK10 Lys2 labeling site in human Huh-7 cell lysate at 1 uM by KiNativ Profiling analysis relative to control; format: subcellular
[2] = Inhibition of KHS1 Lys2 labeling site harbouring DIKGANILLTDHGDVK in human Huh-7 cell lysate at 1 uM by KiNativ Profiling analysis relative to control; details: condition cancer
[3] = target: Serine/threonine-protein kinase WNK3 (Homo sapiens) (UniProt Q9BYP7); assay: Inhibition of Wnk3 Lys2 labeling site in human Huh-7 cell lysate at 1 uM by KiNativ Profiling analysis relative to control; format: subcellular
[4] = target: Tyrosine-protein kinase ABL2 (Homo sapiens, UniProt P42684); assay: Inhibition of ARG ACT labeling site in human Huh-7 cells at 1 uM by KiNativ Profiling analysis relative to control; format: cell-based
Sequence of Tyrosine-protein kinase ABL2 (P42684 whole entry): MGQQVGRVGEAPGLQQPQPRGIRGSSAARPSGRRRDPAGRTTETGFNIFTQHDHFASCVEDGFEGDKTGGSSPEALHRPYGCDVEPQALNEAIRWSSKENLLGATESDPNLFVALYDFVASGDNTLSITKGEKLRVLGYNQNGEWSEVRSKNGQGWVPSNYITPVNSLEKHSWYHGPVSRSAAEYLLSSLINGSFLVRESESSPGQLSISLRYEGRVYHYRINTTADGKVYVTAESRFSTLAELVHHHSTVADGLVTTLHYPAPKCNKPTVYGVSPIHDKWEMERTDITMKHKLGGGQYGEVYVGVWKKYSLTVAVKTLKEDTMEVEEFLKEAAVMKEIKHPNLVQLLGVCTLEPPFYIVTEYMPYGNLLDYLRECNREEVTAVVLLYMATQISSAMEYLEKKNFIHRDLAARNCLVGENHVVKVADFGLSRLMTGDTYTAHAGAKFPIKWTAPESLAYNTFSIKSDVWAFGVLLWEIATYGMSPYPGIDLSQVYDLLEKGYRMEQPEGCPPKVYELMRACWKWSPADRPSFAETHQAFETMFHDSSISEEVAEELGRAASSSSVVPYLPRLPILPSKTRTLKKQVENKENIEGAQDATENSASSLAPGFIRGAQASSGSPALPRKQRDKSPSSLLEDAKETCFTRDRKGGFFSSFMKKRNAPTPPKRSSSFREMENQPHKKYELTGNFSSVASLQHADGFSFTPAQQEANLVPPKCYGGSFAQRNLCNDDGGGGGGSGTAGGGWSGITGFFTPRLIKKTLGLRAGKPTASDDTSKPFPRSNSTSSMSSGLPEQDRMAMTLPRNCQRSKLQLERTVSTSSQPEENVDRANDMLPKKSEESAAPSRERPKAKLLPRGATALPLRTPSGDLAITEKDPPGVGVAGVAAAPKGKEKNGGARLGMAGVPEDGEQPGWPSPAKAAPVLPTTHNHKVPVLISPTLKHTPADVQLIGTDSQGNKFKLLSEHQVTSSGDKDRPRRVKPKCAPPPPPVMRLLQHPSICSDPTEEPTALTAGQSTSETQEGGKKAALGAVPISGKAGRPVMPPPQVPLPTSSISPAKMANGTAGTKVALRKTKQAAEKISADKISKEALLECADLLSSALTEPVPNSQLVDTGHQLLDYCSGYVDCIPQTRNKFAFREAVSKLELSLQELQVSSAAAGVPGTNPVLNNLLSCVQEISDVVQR

[5] = target: MAP kinase-activated protein kinase 2 (Homo sapiens) (UniProt P49137); assay: Inhibition of MAPKAPK2 (unknown origin) at 10 uM by Ambit Kinomescan binding assay
[6] = target: Dual specificity mitogen-activated protein kinase kinase 2 (Homo sapiens) (UniProt P36507); assay: Inhibition of MAP2K2 Lys2 labeling site in human A-375 cells at 5 uM by KiNativ Profiling analysis relative to control; format: cell-based
[7] = target: Mitogen-activated protein kinase 7 (Homo sapiens) (UniProt Q13164); assay: Inhibition of Erk5 Lys2 labeling site in human A-375 cells at 0.05 uM by KiNativ Profiling analysis relative to control; format: cell-based
[8] = target: TRAF2 and NCK-interacting protein kinase (Homo sapiens) (UniProt Q9UKE5); assay: Inhibition of TNIK K1 labeling site in human Huh-7 cells at 10 uM by KiNativ Profiling analysis relative to control; format: cell-based
[9] = target: Dual specificity protein kinase TTK (Homo sapiens) (UniProt P33981); assay: Inhibition of TTK (unknown origin) at 1 uM by Ambit Kinomescan binding assay relative to control
Sequence of Dual specificity protein kinase TTK (Homo sapiens) (P33981 whole entry): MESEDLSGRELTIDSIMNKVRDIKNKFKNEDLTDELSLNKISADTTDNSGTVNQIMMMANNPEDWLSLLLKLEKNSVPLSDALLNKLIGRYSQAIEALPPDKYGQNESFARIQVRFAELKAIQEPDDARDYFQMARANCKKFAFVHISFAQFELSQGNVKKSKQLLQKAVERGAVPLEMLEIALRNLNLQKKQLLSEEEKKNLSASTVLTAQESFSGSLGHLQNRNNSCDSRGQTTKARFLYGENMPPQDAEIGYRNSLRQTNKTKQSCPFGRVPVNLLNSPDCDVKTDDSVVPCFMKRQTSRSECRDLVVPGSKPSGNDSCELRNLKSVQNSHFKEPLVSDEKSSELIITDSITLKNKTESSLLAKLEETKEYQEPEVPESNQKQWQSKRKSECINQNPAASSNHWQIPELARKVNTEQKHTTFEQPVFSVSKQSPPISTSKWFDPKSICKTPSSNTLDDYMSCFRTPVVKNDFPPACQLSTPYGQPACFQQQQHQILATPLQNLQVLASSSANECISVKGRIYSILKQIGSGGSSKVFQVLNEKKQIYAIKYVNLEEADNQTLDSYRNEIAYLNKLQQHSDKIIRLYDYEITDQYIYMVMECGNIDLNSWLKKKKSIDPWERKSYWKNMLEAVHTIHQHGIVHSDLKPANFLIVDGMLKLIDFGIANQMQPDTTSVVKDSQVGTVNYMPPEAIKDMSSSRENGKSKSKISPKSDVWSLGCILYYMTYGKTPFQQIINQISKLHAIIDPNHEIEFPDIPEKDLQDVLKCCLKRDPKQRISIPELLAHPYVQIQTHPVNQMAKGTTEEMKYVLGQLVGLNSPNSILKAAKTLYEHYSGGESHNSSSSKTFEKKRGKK

[10] = target: T1, Serine/threonine-protein kinase STK11 (Homo sapiens) (UniProt Q15831); assay: Inhibition of LKB1 Lys2 labeling site in human A-375 cells at 0.5 uM by KiNativ Profiling analysis relative to control; format: cell-based
T1 sequence (whole entry): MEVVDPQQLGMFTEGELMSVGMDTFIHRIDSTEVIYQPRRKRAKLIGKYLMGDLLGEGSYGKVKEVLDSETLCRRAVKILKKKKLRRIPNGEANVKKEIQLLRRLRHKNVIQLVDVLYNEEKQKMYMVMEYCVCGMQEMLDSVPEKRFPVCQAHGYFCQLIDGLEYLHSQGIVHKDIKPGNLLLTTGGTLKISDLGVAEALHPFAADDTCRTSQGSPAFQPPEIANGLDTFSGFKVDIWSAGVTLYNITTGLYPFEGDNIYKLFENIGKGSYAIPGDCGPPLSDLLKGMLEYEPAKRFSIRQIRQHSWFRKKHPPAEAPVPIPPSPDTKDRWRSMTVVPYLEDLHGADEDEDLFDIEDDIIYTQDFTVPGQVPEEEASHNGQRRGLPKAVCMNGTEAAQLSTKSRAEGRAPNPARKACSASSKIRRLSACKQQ

[11] = target: Vascular endothelial growth factor receptor 3 (Homo sapiens) (UniProt P35916); assay: Inhibition of FLT4 (unknown origin) at 1 uM by Ambit Kinomescan binding assay relative to control; values are per cent of control
Sequence of Vascular endothelial growth factor receptor 3 (Homo sapiens) (P35916 whole entry): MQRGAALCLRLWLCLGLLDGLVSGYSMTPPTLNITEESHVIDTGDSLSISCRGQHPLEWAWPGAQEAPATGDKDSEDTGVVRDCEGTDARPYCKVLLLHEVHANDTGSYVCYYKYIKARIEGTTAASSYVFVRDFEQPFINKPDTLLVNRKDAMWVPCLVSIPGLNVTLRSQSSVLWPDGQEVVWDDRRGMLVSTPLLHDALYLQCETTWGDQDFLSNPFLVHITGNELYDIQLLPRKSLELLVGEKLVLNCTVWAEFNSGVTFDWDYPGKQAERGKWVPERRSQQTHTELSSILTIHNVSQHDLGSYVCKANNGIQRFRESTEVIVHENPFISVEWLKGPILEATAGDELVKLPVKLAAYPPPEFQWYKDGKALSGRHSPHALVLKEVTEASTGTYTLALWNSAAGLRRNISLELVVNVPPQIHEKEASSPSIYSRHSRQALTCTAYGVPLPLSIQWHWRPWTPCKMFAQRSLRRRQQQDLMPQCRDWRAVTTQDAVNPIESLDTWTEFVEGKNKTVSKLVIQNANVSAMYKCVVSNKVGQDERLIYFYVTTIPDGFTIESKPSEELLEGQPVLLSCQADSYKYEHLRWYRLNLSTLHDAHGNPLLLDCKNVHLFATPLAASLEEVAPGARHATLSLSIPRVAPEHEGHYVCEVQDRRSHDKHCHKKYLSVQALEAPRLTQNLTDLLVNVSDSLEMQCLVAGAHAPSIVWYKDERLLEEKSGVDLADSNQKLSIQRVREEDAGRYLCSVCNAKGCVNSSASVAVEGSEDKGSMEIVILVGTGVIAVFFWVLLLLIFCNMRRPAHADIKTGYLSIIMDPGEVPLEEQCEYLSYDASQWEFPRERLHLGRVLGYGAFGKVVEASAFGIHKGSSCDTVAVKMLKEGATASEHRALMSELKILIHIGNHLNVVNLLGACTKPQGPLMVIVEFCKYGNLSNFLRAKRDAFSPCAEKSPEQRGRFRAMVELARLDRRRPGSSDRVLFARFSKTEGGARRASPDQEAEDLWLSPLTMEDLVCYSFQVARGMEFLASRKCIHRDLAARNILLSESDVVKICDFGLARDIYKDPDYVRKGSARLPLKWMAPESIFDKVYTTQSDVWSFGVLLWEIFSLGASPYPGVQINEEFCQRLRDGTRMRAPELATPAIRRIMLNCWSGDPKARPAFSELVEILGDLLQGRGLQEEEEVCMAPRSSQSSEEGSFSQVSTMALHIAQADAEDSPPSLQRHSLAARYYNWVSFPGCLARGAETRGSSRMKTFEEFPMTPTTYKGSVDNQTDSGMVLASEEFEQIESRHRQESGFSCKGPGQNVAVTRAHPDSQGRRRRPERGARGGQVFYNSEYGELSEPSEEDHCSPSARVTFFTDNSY

[12] = target: Serine/threonine-protein kinase 38-like (Homo sapiens) (UniProt Q9Y2H1); assay: Inhibition of NDR2 (unknown origin) at 1 uM by Ambit Kinomescan binding assay relative to control; values are per cent of control
Sequence of Serine/threonine-protein kinase 38-like (Homo sapiens) (Q9Y2H1 2-464 limits assumed): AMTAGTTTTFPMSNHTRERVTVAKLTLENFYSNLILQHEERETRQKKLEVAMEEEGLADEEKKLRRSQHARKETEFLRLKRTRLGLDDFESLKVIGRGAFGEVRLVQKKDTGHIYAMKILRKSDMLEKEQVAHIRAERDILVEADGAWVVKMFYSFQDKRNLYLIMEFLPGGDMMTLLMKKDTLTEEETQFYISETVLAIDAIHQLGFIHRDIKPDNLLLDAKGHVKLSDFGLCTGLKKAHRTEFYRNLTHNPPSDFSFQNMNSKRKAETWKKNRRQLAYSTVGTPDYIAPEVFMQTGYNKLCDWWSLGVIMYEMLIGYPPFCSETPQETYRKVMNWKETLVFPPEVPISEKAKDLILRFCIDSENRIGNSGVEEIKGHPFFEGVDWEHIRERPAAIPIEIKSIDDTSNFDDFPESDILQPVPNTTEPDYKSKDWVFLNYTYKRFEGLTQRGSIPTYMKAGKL

[13] = target: Mitogen-activated protein kinase kinase kinase 19 (Homo sapiens) (UniProt Q56UN5); assay: Inhibition of YSK4 (unknown origin) at 1 uM by Ambit Kinomescan binding assay relative to control; values are per cent of control
[14] = target: T2, Aurora kinase C (Homo sapiens) (UniProt Q9UQB9); assay: Inhibition of AURKC (unknown origin) at 1 uM by Ambit Kinomescan binding assay relative to control; values are per cent of control
T2 sequence (whole entry): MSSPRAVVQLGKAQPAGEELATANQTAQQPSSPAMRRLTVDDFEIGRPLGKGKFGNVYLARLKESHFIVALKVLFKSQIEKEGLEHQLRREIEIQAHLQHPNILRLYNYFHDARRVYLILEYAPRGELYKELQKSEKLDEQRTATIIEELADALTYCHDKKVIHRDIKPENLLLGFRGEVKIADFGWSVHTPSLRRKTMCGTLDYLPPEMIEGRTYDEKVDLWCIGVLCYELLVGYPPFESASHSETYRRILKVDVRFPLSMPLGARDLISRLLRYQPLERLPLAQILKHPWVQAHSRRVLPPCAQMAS

[15] = tested on: Mast/stem cell growth factor receptor Kit (Homo sapiens), P10721 [D816H]; assay: Inhibition of KIT D816H mutant (unknown origin) at 1 uM by Ambit Kinomescan binding assay relative to control; values are per cent of control
Sequence of Mast/stem cell growth factor receptor Kit (Homo sapiens), P10721 [D816H] (P10721 whole entry D816H): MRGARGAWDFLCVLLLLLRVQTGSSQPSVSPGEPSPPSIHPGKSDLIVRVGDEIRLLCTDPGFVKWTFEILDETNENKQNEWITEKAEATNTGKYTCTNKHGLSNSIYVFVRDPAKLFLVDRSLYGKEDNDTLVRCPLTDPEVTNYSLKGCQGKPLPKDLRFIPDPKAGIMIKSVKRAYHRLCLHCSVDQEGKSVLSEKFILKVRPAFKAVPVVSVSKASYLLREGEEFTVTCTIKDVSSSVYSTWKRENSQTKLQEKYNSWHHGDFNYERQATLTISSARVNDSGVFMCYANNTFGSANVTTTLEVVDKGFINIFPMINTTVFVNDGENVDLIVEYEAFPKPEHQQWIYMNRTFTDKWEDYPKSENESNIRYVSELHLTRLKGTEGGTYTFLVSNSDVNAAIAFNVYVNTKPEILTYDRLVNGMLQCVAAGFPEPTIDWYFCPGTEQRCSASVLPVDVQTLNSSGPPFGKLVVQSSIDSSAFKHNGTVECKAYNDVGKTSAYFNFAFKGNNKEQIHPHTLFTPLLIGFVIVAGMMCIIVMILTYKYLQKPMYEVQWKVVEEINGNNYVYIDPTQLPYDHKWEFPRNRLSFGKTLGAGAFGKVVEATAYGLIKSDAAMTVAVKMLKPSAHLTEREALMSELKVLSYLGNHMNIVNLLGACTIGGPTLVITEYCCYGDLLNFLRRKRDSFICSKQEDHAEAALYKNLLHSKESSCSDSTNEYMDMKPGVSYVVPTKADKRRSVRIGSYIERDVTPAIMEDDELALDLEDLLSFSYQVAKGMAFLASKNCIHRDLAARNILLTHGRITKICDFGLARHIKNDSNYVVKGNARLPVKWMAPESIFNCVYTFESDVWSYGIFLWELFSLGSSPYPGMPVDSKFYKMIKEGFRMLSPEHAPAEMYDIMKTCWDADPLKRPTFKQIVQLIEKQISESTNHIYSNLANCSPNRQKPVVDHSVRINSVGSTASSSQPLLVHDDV

[16] = tested on: Receptor-type tyrosine-protein kinase FLT3 (Homo sapiens), P36888 [D835H]; assay: Inhibition of FLT3 D835H mutant (unknown origin) at 1 uM by Ambit Kinomescan binding assay relative to control; values are per cent of control
[17] = tested on: Receptor-type tyrosine-protein kinase FLT3 (Homo sapiens), P36888 [K663Q]; assay: Inhibition of FLT3 K663Q mutant (unknown origin) at 1 uM by Ambit Kinomescan binding assay relative to control; values are per cent of control

CNc1cc(Oc2cc(C(=O)Nc3cc(N4CCN(C)CC4)cc(C(F)(F)F)c3)ccc2C)ncn1
inhibition [1]: 2.7% | inhibition at 1 µM [2]: 0.5% | inhibition [3]: 2.7% | inhibition [4]: 31.6%

CCN1CCN(Cc2ccc(NC(=O)c3ccc(C)c(Oc4ccnc5[nH]ccc45)c3)cc2C(F)(F)F)CC1
inhibition [5]: inactive | inhibition [6]: -10% | inhibition [7]: 5.3% | inhibition [8]: 74.5%

CCN1CCN(Cc2ccc(NC(=O)c3ccc(C)c(/C=C/c4cnc5[nH]ccc5c4OC)c3)cc2C(F)(F)F)CC1
inhibition [9]: 56% | inhibition [10]: 32.2% | residual activity [11]: 26% | residual activity [12]: 79% | percent of control [13]: 1.1% | residual activity [14]: 34% | residual activity [15]: 25% | residual activity [16]: 2.6% | residual activity [17]: 0.15%
